Test system: solid tumors
Assay: Phase I trial, iv single administration every three weeks in patients with solid tumors
Type: in vivo
Conditions: one patient suffering from gastrointestinal sarcoma, dose level 5.1 mg/m^2, iv single administration every three weeks
Procedure: A phase I pharmacological trial was carried out to investigate the iv administration of the title compound given as a single administration every three weeks to patients with solid tumors.
The starting dose of 0.85 mg/m^2 was initially escalated in an accelerated design (100% dose increase; 1 patient/dose level) and then by a conventional dose escalation in 3-6 patient cohorts. 11 patients have been entered so far and 25 cycles have been evaluated for toxicity at dose levels of 0.85, 1.7, 3.4, 5.1 and 7.5 mg/M^2.

Q: `C=C(Br)C(=O)Nc1cc(C(=O)Nc2cc(C(=O)Nc3cc(C(=O)Nc4cc(C(=O)NCCNC(=N)N)n(C)c4)n(C)c3)n(C)c2)n(C)c1.Cl` [PNU 166196, N-(5-{[(5-{[(5-{[(2-{[amino(imino)methyl]amino}ethyl)amino]carbonyl}-1-methyl-1H-pyrrol-3-yl)amino]carbonyl}-1-methyl-1H-pyrrol-3-yl)amino]carbonyl}-1-methyl-1H-pyrrol-3-yl)-4-[(2-bromoacryloyl)amino]-11-methyl-1H-pyrrole-2-carboxamide hydrochloride] was tested. Which tumor response did it give?
A: partial response

— US7399748B2, “Antitumor therapy comprising distamycin derivatives” (Nerviano Medical Sciences S.r.l., priority 2001, dated 2008)
